Calls of active or inactive are those of the source. The rule behind the calls is not given here.
Columns and labels:
Mast cell = assay: Human Mast Cell degranulation; type: cell-based
[1] = system: Tyrosine-protein kinase ABL1 (Homo sapiens), P00519 [Q252H]; settings: Compound concentration 100.0 nM
[2] = target: Activin receptor type-1B (Homo sapiens) (UniProt P36896); settings: Compound concentration 100.0 nM
[3] = target: RAC-gamma serine/threonine-protein kinase (Homo sapiens) (UniProt Q9Y243); settings: Compound concentration 100.0 nM
[4] = target: Aurora kinase A (Homo sapiens) (UniProt O14965); settings: Compound concentration 100.0 nM
[5] = target: Tyrosine-protein kinase Blk (Homo sapiens) (UniProt P51451); settings: Compound concentration 100.0 nM
[6] = target: Bone morphogenetic protein receptor type-1B (Homo sapiens) (UniProt O00238); settings: Compound concentration 100.0 nM
[7] = target: Bone morphogenetic protein receptor type-2 (Homo sapiens) (UniProt Q13873); settings: Compound concentration 100.0 nM
[8] = target: Calcium/calmodulin-dependent protein kinase kinase 2 (Homo sapiens) (UniProt Q96RR4); settings: Compound concentration 100.0 nM
[9] = target: Serine/threonine-protein kinase Chk2 (Homo sapiens) (UniProt O96017); settings: Compound concentration 100.0 nM
[10] = target: Casein kinase II subunit alpha (Homo sapiens) (UniProt P68400); settings: Compound concentration 100.0 nM
[11] = target: Casein kinase II subunit alpha' (Homo sapiens) (UniProt P19784); settings: Compound concentration 100.0 nM
[12] = target: Serine/threonine-protein kinase DCLK2 (Homo sapiens) (UniProt Q8N568); settings: Compound concentration 100.0 nM
[13] = target: Ephrin type-A receptor 6 (Homo sapiens) (UniProt Q9UF33); settings: Compound concentration 100.0 nM
[14] = target: Ephrin type-A receptor 7 (Homo sapiens) (UniProt Q15375); settings: Compound concentration 100.0 nM
[15] = target: Receptor tyrosine-protein kinase erbB-3 (Homo sapiens) (UniProt P21860); settings: Compound concentration 100.0 nM
[16] = target: Mitogen-activated protein kinase 7 (Homo sapiens) (UniProt Q13164); settings: Compound concentration 100.0 nM
[17] = target: Receptor-type tyrosine-protein kinase FLT3 (Homo sapiens) (UniProt P36888); settings: Compound concentration 100.0 nM
[18] = target: Homeodomain-interacting protein kinase 1 (Homo sapiens) (UniProt Q86Z02); settings: Compound concentration 100.0 nM
[19] = target: Insulin receptor-related protein (Homo sapiens) (UniProt P14616); settings: Compound concentration 100.0 nM
[20] = target: Interleukin-1 receptor-associated kinase 3 (Homo sapiens) (UniProt Q9Y616); settings: Compound concentration 100.0 nM
[21] = target: Mitogen-activated protein kinase 10 (Homo sapiens) (UniProt P53779); settings: Compound concentration 100.0 nM
[22] = target: Serine/threonine-protein kinase 10 (Homo sapiens) (UniProt O94804); settings: Compound concentration 100.0 nM
[23] = target: Leucine-rich repeat serine/threonine-protein kinase 2 (Homo sapiens) (UniProt Q5S007); settings: Compound concentration 100.0 nM
[24] = target: MAP kinase-interacting serine/threonine-protein kinase 1 (Homo sapiens) (UniProt Q9BUB5); settings: Compound concentration 100.0 nM
[25] = target: Serine/threonine-protein kinase MRCK alpha (Homo sapiens) (UniProt Q5VT25); settings: Compound concentration 100.0 nM
[26] = target: Serine/threonine-protein kinase 24 (Homo sapiens) (UniProt Q9Y6E0); settings: Compound concentration 100.0 nM
[27] = target: Serine/threonine-protein kinase Nek2 (Homo sapiens) (UniProt P51955); settings: Compound concentration 100.0 nM
[28] = target: Serine/threonine-protein kinase Nek9 (Homo sapiens) (UniProt Q8TD19); settings: Compound concentration 100.0 nM
[29] = target: Serine/threonine-protein kinase PAK 6 (Homo sapiens) (UniProt Q9NQU5); settings: Compound concentration 100.0 nM
[30] = target: Phosphatidylinositol 3-kinase C2 domain-containing subunit gamma (Homo sapiens) (UniProt O75747); settings: Compound concentration 100.0 nM
[31] = target: Phosphatidylinositol 5-phosphate 4-kinase type-2 gamma (Homo sapiens) (UniProt Q8TBX8); settings: Compound concentration 100.0 nM
[32] = target: Serine/threonine-protein kinase D2 (Homo sapiens) (UniProt Q9BZL6); settings: Compound concentration 100.0 nM
[33] = target: SRSF protein kinase 3 (Homo sapiens) (UniProt Q9UPE1); settings: Compound concentration 100.0 nM
[34] = target: Serine/threonine-protein kinase 35 (Homo sapiens) (UniProt Q8TDR2); settings: Compound concentration 100.0 nM
[35] = target: Tyrosine-protein kinase receptor Tie-1 (Homo sapiens) (UniProt P35590); settings: Compound concentration 100.0 nM
[36] = target: Dual specificity protein kinase TTK (Homo sapiens) (UniProt P33981); settings: Compound concentration 100.0 nM
[37] = target: Serine/threonine-protein kinase WNK1 (Homo sapiens) (UniProt Q9H4A3); settings: Compound concentration 100.0 nM
[38] = target: Serine/threonine-protein kinase 32B (Homo sapiens) (UniProt Q9NY57); settings: Compound concentration 100.0 nM
[39] = target: Tyrosine-protein kinase Yes (Homo sapiens) (UniProt P07947); settings: Compound concentration 100.0 nM
[40] = target: 5-hydroxytryptamine receptor 2C (Homo sapiens) (UniProt P28335); settings: Compound concentration 10.0 uM
[41] = target: D(1B) dopamine receptor (Homo sapiens) (UniProt P21918); settings: Compound concentration 10.0 uM
[42] = target: Kappa-type opioid receptor (Homo sapiens) (UniProt P41145); settings: Compound concentration 10.0 uM
[43] = target: Histamine H4 receptor (Homo sapiens) (UniProt Q9H3N8); settings: Compound concentration 10.0 uM
[44] = target: Alpha-1B adrenergic receptor (Homo sapiens) (UniProt P35368); settings: Compound concentration 10.0 uM
[45] = target: Muscarinic acetylcholine receptor M2 (Homo sapiens) (UniProt P08172); settings: Compound concentration 10.0 uM

Sequence of RAC-gamma serine/threonine-protein kinase (Homo sapiens) (Q9Y243 whole entry): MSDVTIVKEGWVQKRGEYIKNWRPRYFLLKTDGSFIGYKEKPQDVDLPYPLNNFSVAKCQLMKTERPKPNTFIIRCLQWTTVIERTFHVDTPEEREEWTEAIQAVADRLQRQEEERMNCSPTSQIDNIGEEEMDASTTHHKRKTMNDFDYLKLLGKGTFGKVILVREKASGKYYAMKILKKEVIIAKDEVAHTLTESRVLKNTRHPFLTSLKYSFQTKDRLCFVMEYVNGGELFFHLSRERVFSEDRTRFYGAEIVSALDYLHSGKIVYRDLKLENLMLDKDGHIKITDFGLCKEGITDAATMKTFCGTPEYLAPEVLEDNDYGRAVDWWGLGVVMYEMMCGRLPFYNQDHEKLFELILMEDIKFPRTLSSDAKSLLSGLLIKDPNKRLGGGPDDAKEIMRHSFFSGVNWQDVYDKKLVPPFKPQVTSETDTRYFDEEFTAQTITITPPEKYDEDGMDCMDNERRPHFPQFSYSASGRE
Sequence of Alpha-1B adrenergic receptor (Homo sapiens) (P35368 whole entry): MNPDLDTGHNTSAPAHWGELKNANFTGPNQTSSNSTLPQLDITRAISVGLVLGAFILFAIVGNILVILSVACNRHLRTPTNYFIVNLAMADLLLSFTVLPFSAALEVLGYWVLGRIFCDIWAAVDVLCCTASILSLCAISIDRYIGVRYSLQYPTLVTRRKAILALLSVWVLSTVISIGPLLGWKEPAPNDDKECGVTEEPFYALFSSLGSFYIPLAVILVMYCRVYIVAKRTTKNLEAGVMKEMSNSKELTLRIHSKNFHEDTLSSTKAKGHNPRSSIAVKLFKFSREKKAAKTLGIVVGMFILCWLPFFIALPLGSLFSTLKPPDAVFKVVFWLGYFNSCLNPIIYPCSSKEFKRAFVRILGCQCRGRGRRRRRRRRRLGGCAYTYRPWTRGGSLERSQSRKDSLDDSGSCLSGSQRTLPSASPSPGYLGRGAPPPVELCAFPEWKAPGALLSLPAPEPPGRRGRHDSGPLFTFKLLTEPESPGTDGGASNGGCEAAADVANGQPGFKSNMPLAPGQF
Sequence of Dual specificity protein kinase TTK (Homo sapiens) (P33981 whole entry): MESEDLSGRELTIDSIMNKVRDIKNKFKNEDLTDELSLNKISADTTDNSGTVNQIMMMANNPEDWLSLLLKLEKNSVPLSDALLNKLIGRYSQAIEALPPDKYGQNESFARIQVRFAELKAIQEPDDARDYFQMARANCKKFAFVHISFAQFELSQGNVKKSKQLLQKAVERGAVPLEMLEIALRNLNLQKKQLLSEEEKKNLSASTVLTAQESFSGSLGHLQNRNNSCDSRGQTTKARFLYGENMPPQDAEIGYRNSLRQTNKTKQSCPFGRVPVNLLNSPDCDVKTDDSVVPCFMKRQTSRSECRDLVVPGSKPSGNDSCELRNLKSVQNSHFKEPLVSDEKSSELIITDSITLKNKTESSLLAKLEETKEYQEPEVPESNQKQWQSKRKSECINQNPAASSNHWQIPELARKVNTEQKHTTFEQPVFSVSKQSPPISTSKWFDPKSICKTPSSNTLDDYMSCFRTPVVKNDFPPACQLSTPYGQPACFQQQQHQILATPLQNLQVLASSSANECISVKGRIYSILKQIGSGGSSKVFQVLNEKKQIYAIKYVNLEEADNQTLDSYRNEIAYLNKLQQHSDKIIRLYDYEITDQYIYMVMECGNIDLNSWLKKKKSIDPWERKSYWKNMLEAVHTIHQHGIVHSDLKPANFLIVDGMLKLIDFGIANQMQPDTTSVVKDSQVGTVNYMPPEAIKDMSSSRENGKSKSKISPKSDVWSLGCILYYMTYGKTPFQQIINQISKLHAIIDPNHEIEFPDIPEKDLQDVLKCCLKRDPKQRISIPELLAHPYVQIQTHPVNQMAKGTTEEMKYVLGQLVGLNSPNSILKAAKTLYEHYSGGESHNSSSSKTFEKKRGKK
Sequence of Serine/threonine-protein kinase 32B (Homo sapiens) (Q9NY57 whole entry): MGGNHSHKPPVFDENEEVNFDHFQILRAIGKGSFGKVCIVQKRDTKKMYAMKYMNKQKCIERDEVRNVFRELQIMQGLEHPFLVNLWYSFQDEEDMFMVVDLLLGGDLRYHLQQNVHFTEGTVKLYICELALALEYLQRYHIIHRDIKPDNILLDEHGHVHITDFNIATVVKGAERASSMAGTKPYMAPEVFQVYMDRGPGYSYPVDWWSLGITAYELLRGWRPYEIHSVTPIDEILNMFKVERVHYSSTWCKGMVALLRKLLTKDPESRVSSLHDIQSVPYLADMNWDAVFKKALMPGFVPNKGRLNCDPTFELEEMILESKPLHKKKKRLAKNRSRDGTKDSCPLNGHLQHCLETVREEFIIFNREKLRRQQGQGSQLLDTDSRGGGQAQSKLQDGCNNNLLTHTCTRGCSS
Sequence of Serine/threonine-protein kinase Nek9 (Homo sapiens) (Q8TD19 whole entry): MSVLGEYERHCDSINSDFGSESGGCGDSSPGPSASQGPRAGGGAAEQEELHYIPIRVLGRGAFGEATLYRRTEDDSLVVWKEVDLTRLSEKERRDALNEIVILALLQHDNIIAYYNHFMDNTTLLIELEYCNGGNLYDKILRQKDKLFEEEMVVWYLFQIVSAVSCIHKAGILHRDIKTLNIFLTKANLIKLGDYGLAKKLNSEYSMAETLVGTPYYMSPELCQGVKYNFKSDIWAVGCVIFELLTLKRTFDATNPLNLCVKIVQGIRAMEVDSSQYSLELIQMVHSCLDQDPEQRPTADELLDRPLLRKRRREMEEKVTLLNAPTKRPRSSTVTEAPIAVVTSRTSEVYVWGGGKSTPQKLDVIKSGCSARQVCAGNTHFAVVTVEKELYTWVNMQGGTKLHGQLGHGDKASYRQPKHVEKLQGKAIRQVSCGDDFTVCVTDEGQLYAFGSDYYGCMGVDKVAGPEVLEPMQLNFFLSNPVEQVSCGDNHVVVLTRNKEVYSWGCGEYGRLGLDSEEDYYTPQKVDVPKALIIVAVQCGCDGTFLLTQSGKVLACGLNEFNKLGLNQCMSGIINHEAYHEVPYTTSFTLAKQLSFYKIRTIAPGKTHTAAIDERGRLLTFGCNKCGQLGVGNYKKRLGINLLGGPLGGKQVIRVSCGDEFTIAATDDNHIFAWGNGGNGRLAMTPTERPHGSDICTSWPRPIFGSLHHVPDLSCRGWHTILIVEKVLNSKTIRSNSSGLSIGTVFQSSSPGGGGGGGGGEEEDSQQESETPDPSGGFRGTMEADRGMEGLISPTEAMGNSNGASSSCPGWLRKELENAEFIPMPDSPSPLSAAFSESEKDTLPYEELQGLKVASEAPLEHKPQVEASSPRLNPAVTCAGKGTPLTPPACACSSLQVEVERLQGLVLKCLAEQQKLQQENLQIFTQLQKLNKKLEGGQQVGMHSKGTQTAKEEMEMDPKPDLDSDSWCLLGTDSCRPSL
Sequence of MAP kinase-interacting serine/threonine-protein kinase 1 (Homo sapiens) (Q9BUB5 whole entry, looked up): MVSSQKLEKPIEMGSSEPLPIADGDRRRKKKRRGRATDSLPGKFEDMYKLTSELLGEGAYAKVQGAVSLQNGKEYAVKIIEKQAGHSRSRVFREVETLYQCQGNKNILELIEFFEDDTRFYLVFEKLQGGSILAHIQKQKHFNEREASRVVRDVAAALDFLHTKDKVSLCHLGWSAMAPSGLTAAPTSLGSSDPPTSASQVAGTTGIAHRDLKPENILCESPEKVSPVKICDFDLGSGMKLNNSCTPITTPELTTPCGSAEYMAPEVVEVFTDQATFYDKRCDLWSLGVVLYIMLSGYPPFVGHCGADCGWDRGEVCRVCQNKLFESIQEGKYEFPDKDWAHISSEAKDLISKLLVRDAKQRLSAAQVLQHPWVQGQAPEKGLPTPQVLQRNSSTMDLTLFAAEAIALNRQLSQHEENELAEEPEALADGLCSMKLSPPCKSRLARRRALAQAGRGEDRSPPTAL
Sequence of Homeodomain-interacting protein kinase 1 (Homo sapiens) (Q86Z02 whole entry, looked up): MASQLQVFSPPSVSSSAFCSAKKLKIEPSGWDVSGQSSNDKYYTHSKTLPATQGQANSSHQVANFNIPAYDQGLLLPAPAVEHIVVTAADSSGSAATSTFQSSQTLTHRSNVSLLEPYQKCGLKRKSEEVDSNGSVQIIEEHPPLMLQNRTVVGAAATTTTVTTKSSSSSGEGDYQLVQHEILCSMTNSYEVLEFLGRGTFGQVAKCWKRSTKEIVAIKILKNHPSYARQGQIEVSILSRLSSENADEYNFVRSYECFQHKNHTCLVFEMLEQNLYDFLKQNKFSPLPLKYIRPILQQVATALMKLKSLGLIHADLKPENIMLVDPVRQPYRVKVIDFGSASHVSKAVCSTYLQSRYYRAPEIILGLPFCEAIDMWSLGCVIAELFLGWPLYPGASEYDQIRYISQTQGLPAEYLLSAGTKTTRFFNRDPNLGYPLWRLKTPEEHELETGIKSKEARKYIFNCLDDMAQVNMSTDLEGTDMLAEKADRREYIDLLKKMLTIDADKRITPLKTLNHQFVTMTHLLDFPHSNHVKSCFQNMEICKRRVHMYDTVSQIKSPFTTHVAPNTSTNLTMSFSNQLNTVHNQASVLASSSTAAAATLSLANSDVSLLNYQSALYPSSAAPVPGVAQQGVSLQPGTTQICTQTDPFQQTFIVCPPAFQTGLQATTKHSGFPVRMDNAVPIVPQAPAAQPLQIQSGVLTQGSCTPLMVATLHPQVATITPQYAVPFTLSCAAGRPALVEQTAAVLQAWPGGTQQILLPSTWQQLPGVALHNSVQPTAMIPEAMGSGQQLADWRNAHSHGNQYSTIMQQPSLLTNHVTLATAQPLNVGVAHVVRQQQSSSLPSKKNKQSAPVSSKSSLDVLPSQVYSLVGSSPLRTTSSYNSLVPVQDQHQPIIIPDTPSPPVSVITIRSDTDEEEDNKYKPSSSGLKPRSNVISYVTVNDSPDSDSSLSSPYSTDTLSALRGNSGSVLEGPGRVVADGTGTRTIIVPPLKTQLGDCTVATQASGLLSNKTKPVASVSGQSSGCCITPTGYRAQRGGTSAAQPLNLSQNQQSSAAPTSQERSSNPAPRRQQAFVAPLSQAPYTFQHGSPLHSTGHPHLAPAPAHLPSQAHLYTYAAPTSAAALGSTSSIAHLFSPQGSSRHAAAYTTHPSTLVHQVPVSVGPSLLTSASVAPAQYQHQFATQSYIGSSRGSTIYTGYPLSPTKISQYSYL

With Cc1ccc(-c2cnc([C@@]3(O)CC[C@H](C(=O)O)C(C)(C)C3)s2)cc1Nc1cccc(C(F)(F)F)n1 [MRL-SYKi-NC] the IC50 (Mast cell) was > 10 µM (not active), the residual activity [1] was 82.2% and the residual activity [2] was 100%. It also gave a residual activity [3] of 82.8%, a residual activity [4] of 60.2% and a residual activity [5] of 100%. For the same molecule, the residual activity [6] was 92.3%, the residual activity [7] was 54.9% and the residual activity [8] was 91.5%. It also gave a residual activity [9] of 100%, a residual activity [10] of 100% and a residual activity [11] of 59.8%. For the same molecule, the residual activity [12] was 100%, the residual activity [13] was 100% and the residual activity [14] was 94.2%. It also gave a residual activity [15] of 100%, a residual activity [16] of 100% and a residual activity [17] of 100%. It also gave a residual activity [18] of 84.8%, a residual activity [19] of 86.1% and a residual activity [20] of 93%. The residual activity [21] was 37.5%, the residual activity [22] was 74.5% and the residual activity [23] was 87.4%. For the same molecule, the residual activity [24] was 75%, the residual activity [25] was 100% and the residual activity [26] was 100%. For the same molecule, the residual activity [27] was 100%, the residual activity [28] was 80.3% and the residual activity [29] was 70.5%. The residual activity [30] was 59.6%, the residual activity [31] was 97.5% and the residual activity [32] was 100%. For the same molecule, the residual activity [33] was 100%, the residual activity [34] was 97.3% and the residual activity [35] was 86.8%. For the same molecule, the residual activity [36] was 78.8%, the residual activity [37] was 100% and the residual activity [38] was 63.9%. The residual activity [39] was 100%, the inhibition [40] was 4.21% and the inhibition [41] was 18.6%. It also gave an inhibition [42] of -5.83%, an inhibition [43] of 8.06% and an inhibition [44] of 7.9%. It also gave an inhibition [45] of 23%.

For Cc1cc(Nc2nccc(C)n2)cc(-c2cnc([C@@]3(O)CC[C@H](C(=O)O)C(C)(C)C3)s2)c1 [MRL-SYKi], the IC50 (Mast cell) was 0.038 µM (active), the residual activity [1] was 32.4% and the residual activity [2] was 92.7%. It also gave a residual activity [3] of 100%, a residual activity [4] of 100% and a residual activity [5] of 74.6%. For the same molecule, the residual activity [6] was 100%, the residual activity [7] was 100% and the residual activity [8] was 69.7%. The residual activity [9] was 100%, the residual activity [10] was 100% and the residual activity [11] was 100%. The residual activity [12] was 90.1%, the residual activity [13] was 95.8% and the residual activity [14] was 81.3%. The residual activity [15] was 66.6%, the residual activity [16] was 83.6% and the residual activity [17] was 94.2%. The residual activity [18] was 52.3%, the residual activity [19] was 100% and the residual activity [20] was 44.7%. The residual activity [21] was 67.7%, the residual activity [22] was 100% and the residual activity [23] was 87.1%. For the same molecule, the residual activity [24] was 94.8%, the residual activity [25] was 86.2% and the residual activity [26] was 83.5%. The residual activity [27] was 100%, the residual activity [28] was 92.8% and the residual activity [29] was 100%. The residual activity [30] was 95.9%, the residual activity [31] was 91.9% and the residual activity [32] was 96.1%. For the same molecule, the residual activity [33] was 100%, the residual activity [34] was 100% and the residual activity [35] was 68.1%. The residual activity [36] was 74.8%, the residual activity [37] was 100% and the residual activity [38] was 100%. It also gave a residual activity [39] of 100%, an inhibition [40] of 3.02% and an inhibition [41] of 8.85%. For the same molecule, the inhibition [42] was 30.6%, the inhibition [43] was 7.61% and the inhibition [44] was 3.23%. The inhibition [45] was 8.6%.
